pIC50: −log10 of the molar value. Entries after “also recorded” stand apart in the source; their conditions may differ. Read-outs that look alike come from different tables or passages of the source.
Key:
Akt = conditions: established tumors treated for 5 days; cited from earlier work
PAR1 [1] = conditions: guinea pigs, intravenous administration; cited from earlier work
MDA-MB-231 = MDA-MB-231 (s.q.), 10 mg/kg (i.p. q2d) combination with docetaxel (10 mg/kg i.p. once weekly), p < 0.01; cited from earlier work
PAR1 [2] = conditions: guinea pigs, cited from earlier work
PAR1 [3] = conditions: guinea pig platelets; cited from earlier work
GFP/MDA-MB-231 = GFP/MDA-MB-231 (i.v.), 10 mg/kg (s.c. 5 days per week), single agent, p < 0.001; cited from earlier work
OVCAR4 = conditions: cited from earlier work
SKOV3 = SKOV3 (i.p.), 10 mg/kg (s.c. 5 days per week), single agent; cited from earlier work
[4] = tested on: PAR1-expressing breast cancer cells; conditions: through Akt; cited from earlier work
PAR1 [5] = conditions: cited from earlier work
PAR1-MCF7/N55 = conditions: cited from earlier work
PAR1 [6] = conditions: rat aortic rings, vascular tissue preparations; cited from earlier work
PAR1 [7] = conditions: cited from earlier work; for Outcome: sepsis, SIRS, DIC, mice
CXCR1/2 = conditions: sepsis, SIRS, DIC, septic mice; cited from earlier work
PAR4 [8] = conditions: sepsis, SIRS, DIC, mice; cited from earlier work
PAR4 [9] = conditions: cited from earlier work
PAR4 [10] = conditions: wire injury to the carotid artery of mice, fluorescent platelets; cited from earlier work
PAR4 [11] = conditions: cited from earlier work; remark: listed apart in the source
PAR4 [12] = conditions: Inflammation/paw edema, carrageenan, mice; cited from earlier work
PAR1 [13] = conditions: at higher concentrations; cited from earlier work
PAR4 [14] = conditions: cited from earlier work; remark: listed apart in the source
human neutrophils = conditions: cited from earlier work
PAR4 [15] = conditions: PAR4 agonist in mouse knee joint; cited from earlier work
[16] = tested on: thromboxane, ADP, collagen, or GPIb/IX/V receptors; conditions: cited from earlier work
PAR4 [17] = conditions: cited from earlier work; remark: listed apart in the source
PAR4 [18] = conditions: mice, induced by AYPGKF plus epinephrine; cited from earlier work
PAR4 [19] = conditions: guinea pigs, cited from earlier work
PAR4 [20] = conditions: cited from earlier work; remark: listed apart in the source
PAR4 [21] = conditions: thrombin-preactivated human platelets; cited from earlier work
PAR1 [22] = conditions: selectivity for PAR4; cited from earlier work
[23] = tested on: breast MCF-7 cells and melanoma SK-Mel2 cells; conditions: inhibition of growth, cell line not specified (MCF-7 and SK-Mel2 tested); cited from earlier work
[24] = mouse, in vivo

C15H31CONH-KKSRALF-NH2 [Pepducin P1pal-7]
phosphorylation of Akt (Akt): significantly inhibited
collagen-induced thrombocytopenia (PAR1 [1]): protected from collagen-induced thrombocytopenia
Efficacy: tumor burden, reduction in tumor growth (MDA-MB-231): 95%
prolongation of the occlusion time (PAR1 [2]; 0.3 mg/kg i.v., carotid injury model): approximately 50%
Outcome (arterial occlusion time) (PAR1 [2]; intravenous, carotid artery FeCl3 injury model): prolonged the mean occlusion time; also recorded: Prolonged collagen-induced arterial occlusion time in guinea pigs
Outcome (platelet aggregation) (PAR1 [3]): Inhibition of guinea pigs platelet aggregation
Efficacy: reduction in metastasis to lung (GFP/MDA-MB-231): 88%
Efficacy: diaphragm metastasis / peritoneal dissemination (OVCAR4; OVCAR4 (i.p.), 3.6 mg/kg (i.p. q2d) combination with docetaxel (10 mg/kg i.p. once weekly), p < 0.005): Significant reduction in diaphragm metastasis (p < 0.005)
Efficacy: inhibition in ascites formation (OVCAR4; OVCAR4 (i.p.), 10 mg/kg (i.p. q2d), single agent): 60%
ascites production in peritoneal ovarian cancer (OVCAR4; cell line not given): significantly inhibited
angiogenesis of peritoneal ovarian cancers (OVCAR4): almost completely blocked
Efficacy: ascites formation (SKOV3): Ascites formation, complete inhibition of ascites
viability of PAR1-expressing breast cancer cells [4]: inhibited the viability
p38 MAPK activation (PAR1 [5]; human platelets, collagen): blocked p38 MAPK activation
collagen-induced platelet aggregation (PAR1 [5]; human platelets): inhibition of collagen-induced platelet aggregation
propagation of platelet–platelet thrombi (PAR1 [5]; human whole blood, arterial flow conditions): significantly reduced
Efficacy: tumor burden, reduction in tumor growth (PAR1-MCF7/N55; PAR1-MCF7/N55 (s.q.), 10 mg/kg (s.c. q2d), single agent, p < 0.01): 62%
angiogenesis of breast cancers (PAR1-MCF7/N55): almost completely blocked

N-pal-RCLSSSAVANRSKKSRALF-NH2 [Pepducin P1pal-19]
Outcome (agonist activity: Ca2+ signal, relaxation, prostaglandin E2 release) (PAR1 [6]): promote Ca^2+ signals, prostaglandin E2 release, and persistent relaxation of rat aortic rings in a concentration-dependent manner; also recorded: Promotes Ca^2+ signal, relaxation of rat aortic rings, and prostaglandin E2 release

N-pal-RSLSSSAVANRS-NH2 [Pepducin P1pal-12S]
Outcome (PAR1 [7]): Temporally modulated survival, vascular leakage, and DIC
survival and DIC, treatment at early time points (PAR1 [7]; septic mice): improved survival and prevented DIC
survival and DIC, treatment at late time points (antagonist) (PAR1 [7]; septic mice): but not late time points

N-LCA-YSRVGRSVTD-NH2 [x1/2LCA-i1]
Outcome (CXCR1/2): CXCR1/2 pepducins reduced organ damage, inhibited neutrophil migration, improved survival, and inhibited DIC

N-pal-SGRRYGHALR-NH2 [Pepducin P4pal-10]
Outcome (PAR4 [8]): protected against systemic inflammation and DIC; also recorded: Reduced organ damage and inflammatory mediators, inhibited neutrophil migration
AYPGKF (PAR4 agonist)-induced aggregation (PAR4 [9]): completely blocked
human platelet aggregation to PAR4 agonists (PAR4 [9]): inhibited
Outcome (platelet accumulation) (PAR4 [10]): significant delay in accumulation; also recorded: Delayed platelet accumulation
Outcome (thrombin generation) (PAR4 [11]): delayed the generation of thrombin
Outcome (PAR4 [12]): Reduced edema and granulocyte recruitment induced by carrageenan
block of PAR1 activation (PAR1 [13]): partially block
Outcome (infarct size) (PAR4 [14]; ischemia/reperfusion in rats): Reduced infarct size in ischemia/reperfusion in rats
reduction of myocardium infarct size (PAR4 [14]; rats, intravenous bolus of 10 μg/kg, I/R injury model): approximately 20%
migration of human neutrophils to IP-10, SDF-1α, and S1P (human neutrophils): no effect
migration of human neutrophils to thrombin (human neutrophils): completely blocked
Outcome (joint inflammation) (PAR4 [15]): block the proinflammatory and pronociceptive effects of a PAR4 agonist in the mouse knee joint and alleviate acute joint inflammation; also recorded: Reduced agonist induced joint vascular conductance and edema
effect on ADP, thromboxane, and GPIb/IX/V receptors [16]: did not affect
Outcome (tail bleeding time) (PAR4 [17]; mice infused with pepducin): prolonged tail-bleeding times and unstable thrombi formation; also recorded: Prolonged tail bleeding time in mice
extension of bleeding time (PAR4 [17]; mice, intravenous injection, 4 h point): approximately twofold
bleeding time (PAR4 [17]; mice, intravenous injection, 24 h time point): returned to baseline
increase in bleeding time (PAR4 [17]; mice, intravenous injection, after 5 min, maintained for 1 h): threefold to fivefold
prolongation of bleeding time (PAR4 [17]; mice, subcutaneous injection of 3 mg/kg, 4 h after injection): sixfold
PD half-life (PAR4 [17]; mice, subcutaneous injection of 3 mg/kg): approximately 14 h
systemic thrombus formation (PAR4 [18]): protected against systemic thrombus formation

N-pal-ATGAPRLPST-NH2 [Pepducin P4pal-i1]
decrease of arterial occlusion (PAR4 [19]; carotid injury model, single agent): approximately 50%
Outcome (arterial occlusion) (PAR4 [19]; when combined with bivalirudin or P1pal-7): Inhibition of arterial occlusion in guinea pigs, when combined with bivalirudin or P1pal-7
arterial thrombosis, combined with bivalirudin (PAR4 [19]): suppression of arterial thrombosis in guinea pigs to a much higher degree than bivalirudin alone
human platelet aggregation, combined with bivalirudin (PAR4 [20]): significant inhibition of human platelet aggregation
Outcome (epinephrine-induced Ca2+ flux and aggregation) (PAR4 [21]): inhibited; also recorded: Inhibition of epinephrine-induced Ca^2+ flux
effect on PAR1-induced platelet aggregation (PAR1 [22]): without affecting

Pal-LTYAWHTSFK [SMO-i2-12]
pIC50 [23]: 7.22

N-pal-AVANRSKKSRALF-NH2 [Pepducin P1pal-13]
Outcome (PAR1 [7]): Temporally modulated survival, vascular leakage, and DIC
survival and DIC, treatment at late time points (agonist) (PAR1 [7]; septic mice, by inhibiting leakage of endothelial cell tight junctions): improved survival and prevented DIC

N-pal-RTLFKAHMGQKHRAMR-NH2 [x1/2pal-i3]
Outcome (CXCR1/2): CXCR1/2 pepducins reduced organ damage, inhibited neutrophil migration, improved survival, and inhibited DIC

N-pal-RLAHGYRRGS-NH2 [Rev-P4pal-10, reference compound]
Target (activity class) (PAR4 [9]; reverse-sequence control): Inactive

pal-CGRRYGHALR [[^14C]-P4pal-10C]
increase of radioactivity in urine [24]: fivefold
radioactivity in urine [24]: detected
tissues in which radioactivity appeared ([24]; iv, 1.4 mg/kg): liver, kidney, lungs, and spleen, and lesser amounts to other tissues
tissues in which radioactivity appeared ([24]; iv, 14 mg/kg): kidney, lungs, liver, and spleen with lesser radioactivity appearing in the heart, blood, muscle, and fat, but not the brain
tissues in which radioactivity appeared ([24]; sc, 1 mg/kg): liver, kidney, lungs, and blood
tissues in which radioactivity appeared ([24]; sc, 10 mg/kg): fairly even distribution of radioactivity to the kidney, liver, spleen, blood, heart, and lungs, with lesser amounts to muscle and fat, but not to brain

— PMC3780409 (Methods in molecular biology (Clifton, N.J.), 2011)
